Assay results taken from patent US8580795B2, “Heterocyclic compounds as phosphodiesterase inhibitors” (Orchid Chemicals & Pharmaceuticals Limited, priority 2009, dated 2013).

What was measured:
LPS induced neutrophilia = LPS induced neutrophilia model for asthma and COPD; assay type: in vivo, Male Sprague Dawley rats; conditions: rats, BAL 6 h after LPS exposure
Experimental: LPS Induced Neutrophilia Model for Asthma and COPD:
LPS induced neutrophilia in Sprague Dawley rats was performed using the protocol described in Pulm Pharmacol & Ther 17,133-140, 2004. Male Sprague. Dawley rats were acclimatized to laboratory conditions five to seven days prior to the start of the experiment. They were randomly distributed to various groups based on body weight. Except normal group all the animals were exposed to LPS 100 μg/ml for 40 minutes. The rats were dosed with the test compound suspended in the vehicle containing 0.25% carboxymethylcellulose before half an hour of LPS exposure. BAL was performed 6 h after LPS exposure, total cell count and DLC was done and compared with control and the standard drug.

TNF-α [1] = experiment: In vitro measurement of TNF-α production in LPS-stimulated human PBMC (ELISA); assay type: cell-based; conditions: 100 nM compound, LPS 1 μg/mL, 18 h, NA: Not active
Experimental: Biological Activity In Vitro Measurement of Tumor Necrosis Factor Alpha (TNF-α):
This assay determines the effect of test compounds on the production of TNF-α in human Peripheral Blood Mononuclear Cells (PBMC). Compounds were tested for their ability to inhibit the activity of TNF α in human PBMC. PBMC were isolated from blood (of healthy volunteers) using BD Vacutainer CPT™ (Cell preparation tube, BD Bio Science) and suspended in RPMI (Rosewell park memorial institute) medium (Physiol. Res. 2003, 52, 593-598). The test compounds were pre-incubated with PBMC (0.5 million/incubation well) for 15 minutes at 37° C. and then stimulated with Lipopolysaccharide (Escherichia coli: B4; 1 μg/mL) for 18 h at 37° C. in 5% CO2. The levels of TNF-α in the cell culture medium were estimated using enzyme-linked immunosorbent assay performed in a 96 well format as per the procedure of the manufacturer (Cayman Chemical, Ann Arbor, USA).

TNF-α [2] = experiment: LPS induced sepsis for measurement of TNF-α inhibition in mice; assay type: in vivo, Female Swiss albino mice; conditions: 10 mg/kg oral, 30 min before LPS i.p., serum 90 min after LPS
Experimental: LPS Induced Sepsis for Measurement of TNF-α Inhibition in Mice:
The LPS induced sepsis model in mice was performed as described by Les sekut et al (J Lab Clin Med 1994; 124, 813-20). Female Swiss albino mice were selected and the body weights were equivalent within each group. The mice were fasted for 20 h with free access to water. The mice were dosed orally with the test compound suspended in vehicle containing 0.5% Tween 80 in 0.25% Carboxy-methylcellulose sodium salt. The control mice were administered the vehicle alone. After 30 minutes of oral dosing, mice were injected with 500 μg of Lipopolysaccharide (Escherichia coli, LPS: B4 from Sigma) in phosphate buffer saline solution into the intraperitoneal cavity of the mice. After 90 minutes of LPS administration mice were bled via retro-orbital sinus puncture. Blood samples were stored overnight at 4° C. Serum samples were collected by centrifuging the samples at 4000 rpm for 15 minutes at 4° C. Immediately the serum samples were analysed for TNF-α levels using commercially available mouse TNF-α ELISA kit (Amersham Biosciences) and assay was performed by the manufacturer instruction.

[3] = biological target: human PDE4B enzyme (PDE4B2) (Homo sapiens, UniProt Q07343); experiment: Phosphodiesterase 4 screening assay (SPA, [3H]-cAMP); assay type: biochemical; conditions: 100 nM compound; 0.5 μM cAMP
Experimental: Phosphodiesterase 4 Screening Assay:
PDE4 (Phosphodiesterase type IV) enzymes convert cyclic AMP (cAMP) into AMP. The assay is performed to determine the effect of test compounds on the inhibition of purified human PDE4B enzyme.
The assay involves the detection of the Tritiated AMP (product) using SPA beads known as yittrium silicate. The linear AMP bind preferentially to SPA yittrium silicate beads compared to cyclic nucleotides in the presence of zinc sulphate. The binding of the radiolabelled product to the bead brings the isotope into close proximity to allow radiation from the tritium to excite the scintillant within the bead to emit light. The unbound radiolabel is not close enough to allow this energy transfer and the light emitted due to the binding of tritiated AMP is detected as cpm (counts per minute).
PDE Activity (SPA Based Assay Protocol):
PDE4B activity was inhibited by the compounds according to the invention in a modified SPA (scintillation proximity assay) test, supplied by GE Healthcare Life Sciences (see procedural instructions “Phosphodiesterase [^3H]-cAMP SPA enzyme assay, code TRKQ 7090”), carried out in 96-well microtitre plates. The test volume is 100 μL and contains 50 mM Tris buffer (pH 7.4), 8.3 mM Mg^2+, in the presence of inhibitor or test compound, and containing PDE4B2 enzyme (sufficient to ensure that 10-20% of the cAMP is converted, under the said experimental conditions). […] After a pre-incubation of 5 minutes at 37° C., the reaction is started by adding the substrate (cAMP; 0.5 μM cAMP, including about 50,000 cpm of [^3H]-cAMP) and the assays are incubated for a further 10 minutes; after that, they are stopped by adding SPA beads containing 18 mM ZnSO4 (50 μl). After the beads have been sedimented (>30 minutes), the microtitre plates are analyzed in a Microplate luminescence detection device (TopCount* NXT; PerkinElmer Life Sciences). Where, the signal in the absence of enzyme is defined as the background. 100% activity was defined as the signal detected in the presence of enzyme and DMSO with the background subtracted. The corresponding IC50 values of the compounds for the inhibition of PDE4B2 activity are determined from the concentration-effect curves by means of non-linear regression fit of the standard 4-parameter/multiple binding sites equation from a eight- to ten-point titration. (Catherine B. et al. Anal. Biochem., 1999, 275(2), pp. 148-155, David M. E. Biochem. Pharmacol., 1999, 57, pp. 965-973)

Sequence of human PDE4B enzyme (PDE4B2) (Q07343 1-564 isoform Q07343-2): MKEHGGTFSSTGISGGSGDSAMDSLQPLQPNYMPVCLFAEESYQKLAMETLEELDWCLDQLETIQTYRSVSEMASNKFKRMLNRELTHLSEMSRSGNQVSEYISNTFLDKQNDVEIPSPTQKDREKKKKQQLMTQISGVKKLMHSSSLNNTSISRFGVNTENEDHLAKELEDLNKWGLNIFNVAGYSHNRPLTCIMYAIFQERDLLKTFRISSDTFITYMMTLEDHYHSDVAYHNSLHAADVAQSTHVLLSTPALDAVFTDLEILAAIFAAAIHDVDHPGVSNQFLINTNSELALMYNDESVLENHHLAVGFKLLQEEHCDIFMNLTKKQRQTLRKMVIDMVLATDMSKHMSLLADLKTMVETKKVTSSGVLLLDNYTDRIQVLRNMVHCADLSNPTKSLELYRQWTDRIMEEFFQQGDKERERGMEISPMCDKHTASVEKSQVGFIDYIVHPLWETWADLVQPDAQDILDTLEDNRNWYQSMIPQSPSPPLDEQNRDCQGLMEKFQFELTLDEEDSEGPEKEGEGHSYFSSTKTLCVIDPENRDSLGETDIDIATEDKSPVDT

Structure (SMILES) | inhibition at 0.1 µM (TNF-α [1]) [%] | other results
O=C(NC1CCC(O)CC1)c1csc(-c2ccc(OC(F)F)c3oc4ccccc4c23)n1 (stereo not drawn) [Example 39, 2-((4-Difluoromethoxy)dibenzo[b,d]furan-1-yl)-N-(4-hydroxycyclohexyl)-1,3-thiazole-4-carboxamide] | 77.7 | LPS induced neutrophilia % inhibition (LPS induced neutrophilia; Dose 10 mg/kg): 57.98%
CC(=O)Nc1ccc2oc3c(OC(F)F)ccc(-c4nc(C(=O)NC5CCC(O)CC5)cs4)c3c2c1 (stereo not drawn) [Example 38, 2-(8-Acetamido-4-(difluoromethoxy)dibenzo[b,d]furan-1-yl)-N-(4-hydroxycyclohexyl)-1,3-thiazole-4-carboxamide] | 83.4 | LPS induced neutrophilia % inhibition (LPS induced neutrophilia; Dose 5 mg/kg): 35.68%
COc1ccc(-c2nc(C(=O)Nc3c(Cl)cncc3Cl)cs2)c2c1oc1ccccc12 [Example 13, N-(3,5-Dichloropyridin-4-yl)-2-(4-methoxydibenzo[b,d]furan-1-yl)-1,3-thiazole-4-carboxamide] | 26.1 | TNF-α Inhibition (%) (TNF-α [2]): 37.83%; inhibition at 0.1 µM [3]: 70.3%
CS(=O)(=O)Nc1ccc2oc3c(OC(F)F)ccc(-c4nc(C(=O)N[C@H]5CC[C@H](O)CC5)co4)c3c2c1 [Example 50, 2-(4-(Difluoromethoxy)-8-(methylsulfonamido)dibenzo[b,d]furan-1-yl)-N-(4-hydroxycyclohexyl)-1,3-oxazole-4-carboxamide] |  | TNF-α Inhibition (%) (TNF-α [2]): 13.15%
O=C(NCC(F)(F)F)c1csc(-c2ccc(OC(F)F)c3oc4ccccc4c23)n1 [Example 40, 2-((4-Difluoromethoxy)dibenzo[b,d]furan-1-yl)-N-(2,2,2-trifluoroethyl)-1,3-thiazole-4-carboxamide] | 26.7 | 
COc1ccc(-c2nc(C(=O)Nc3c(Cl)cncc3Cl)c(C)s2)c2c1oc1ccccc12 [Example 28, N-(3,5-Dichloropyridin-4-yl)-2-(4-methoxydibenzo[b,d]furan-1-yl)-5-methyl-1,3-thiazole-4-carboxamide] | 0.88 | 
COc1ccc(-c2nc(C(N)=O)cs2)c2c1oc1ccccc12 [Example 25, 2-(4-Methoxydibenzo[b,d]furan-1-yl)-1,3-thiazole-4-carboxamide] | 35.5 | inhibition at 0.1 µM [3]: 15.4%
COc1ccc(-c2nc(-c3cccc(C(=O)O)n3)cs2)c2c1oc1ccccc12 [Example 2, 6-(2-(4-Methoxydibenzo[b,d]furan-1-yl)-1,3-thiazol-4-yl)picolinic acid] | 26.1 | 
COc1ccc(-c2nc(C(=O)NC3CCCC3)c(C)s2)c2c1oc1ccccc12 [Example 26, N-Cyclopentyl-2-(4-methoxydibenzo[b,d]furan-1-yl)-5-methyl-1,3-thiazole-4-carboxamide] | 21.9 | 
COc1ccc(-c2nc(C(=O)NC3CCC(O)CC3)c(C)s2)c2c1oc1ccccc12 (stereo not drawn) [Example 27, N-(4-Hydroxycyclohexyl)-2-(4-methoxydibenzo[b,d]furan-1-yl)-5-methyl-1,3-thiazole-4-carboxamide] | 82.7 | 
O=C(NC1CCC(O)CC1)c1csc(-c2ccc(OC(F)F)c3oc4ccc(C(F)(F)F)cc4c23)n1 (stereo not drawn) [Example 44, 2-(4-(Difluoromethoxy)-8-(trifluoromethyl)dibenzo[b,d]furan-1-yl)-N-(4-hydroxycyclohexyl)-1,3-thiazole-4-carboxamide] | 17.2 | 
CS(=O)(=O)Nc1ccc2oc3c(OC(F)F)ccc(-c4nc(C(=O)Nc5c(Cl)cncc5Cl)cs4)c3c2c1 [Example 34] | 25.1 | 
COc1ccc(-c2nc(C(=O)NN3CCOCC3)cs2)c2c1oc1ccccc12 [Example 30, 2-(4-Methoxydibenzo[b,d]furan-1-yl)-N-morpholino-1,3-thiazole-4-carboxamide] | 21.9 | 
O=C(Nc1c(Cl)cncc1Cl)c1csc(-c2ccc(OC(F)F)c3oc4ccccc4c23)n1 [Example 14, N-(3,5-dichloropyridin-4-yl)-2-(4-(difluoromethoxy)dibenzo[b,d]furan-1-yl)-1,3-thiazole-4-carboxamide] | 14.5 | TNF-α Inhibition (%) (TNF-α [2]): 40.67%; inhibition at 0.1 µM [3]: 42.3%
Cc1sc(-c2ccc(OC(F)F)c3oc4ccc(NS(C)(=O)=O)cc4c23)nc1C(=O)NC1CCC(O)CC1 (stereo not drawn) [Example 35, 2-(4-(Difluoromethoxy)-8-(methylsulfonamido)dibenzo[b,d]furan-1-yl)-N-(4-hydroxycyclohexyl)-5-methyl-1,3thiazole-4-carboxamide] | 61.8 | LPS induced neutrophilia % inhibition (LPS induced neutrophilia; Dose 10 mg/kg): 19.29%
COc1ccc(-c2nc(C(=O)NC3CCC(O)CC3)cs2)c2c1oc1ccccc12 (stereo not drawn) [Example 31, N-(4-Hydroxycyclohexyl)-2-(4-methoxydibenzo[b,d]furan-1-yl)-1,3-thiazole-4-carboxamide] | 63.1 | 
CONC(=O)c1csc(-c2ccc(OC(F)F)c3oc4ccccc4c23)n1 [Example 42, 2-((4-Difluoromethoxy)dibenzo[b,d]furan-1-yl)-N-methoxy-1,3-thiazole-4-carboxamide] | 8.5 | 
COc1ccc(-c2nc(CCC(=O)Nc3c(Cl)cncc3Cl)cs2)c2c1oc1ccccc12 [Example 11, N-(3,5-Dichloropyridin-4-yl)-3-(2-(4-methoxydibenzo[b,d]furan-1-yl)-1,3-thiazol-4-yl)propanamide] |  | TNF-α Inhibition (%) (TNF-α [2]): 46.70%; inhibition at 0.1 µM [3]: 32.8%
